Calls of active or inactive are those of the source. No cut-off for these calls is given here.

The target in the first test is T1, Rhodopsin (Bos taurus, UniProt P02699). Briefly: Binding affinity to photoactivated rhodopsin in bovine retinal rod outer-segment membranes assessed as induction of extra receptor MII state stabilization by UV/visible difference spectroscopy.
T1 sequence (P02699 whole entry): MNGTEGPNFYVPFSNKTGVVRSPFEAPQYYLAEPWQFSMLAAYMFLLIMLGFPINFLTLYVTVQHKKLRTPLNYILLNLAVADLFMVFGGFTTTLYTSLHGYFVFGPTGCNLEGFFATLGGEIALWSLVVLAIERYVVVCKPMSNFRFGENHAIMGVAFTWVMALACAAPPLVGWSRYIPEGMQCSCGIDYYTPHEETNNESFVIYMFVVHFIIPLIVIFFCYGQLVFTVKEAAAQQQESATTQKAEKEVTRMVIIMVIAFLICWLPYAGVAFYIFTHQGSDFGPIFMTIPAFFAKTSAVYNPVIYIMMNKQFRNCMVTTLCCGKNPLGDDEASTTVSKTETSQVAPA
Take `C[C@H]1[C@H](C)CC[C@]2(C(=O)O)CC[C@]3(C)C(=CC[C@@H]4[C@@]5(C)C[C@@H](O)[C@H](O)[C@@](C)(CO)[C@@H]5[C@H](O)C[C@]43C)[C@H]12` [MADECASSIC ACID]: the EC50 was 120 µM.

Another test deals with T1, Rhodopsin. Briefly: Inhibition of bovine retinal rod outer-segment photoactivated rhodopsin-transducer interaction by transducer release assay.
On to `C[C@H]1[C@H](C)CC[C@]2(C(=O)O)CC[C@]3(C)C(=CC[C@@H]4[C@@]5(C)C[C@@H](O)[C@H](O)[C@@](C)(CO)[C@@H]5[C@H](O)C[C@]43C)[C@H]12` [MADECASSIC ACID], for which half-maximal inhibition (IC50) was put at 180 µM.

For the next test, the target named is Rhodopsin (Bos taurus) (UniProt P02699). Briefly: Binding affinity to photoactivated rhodopsin in bovine retinal rod outer-segment membranes assessed as induction of extra receptor MII state stabilization at 250 uM by UV/visible difference spectroscopy.
Sequence of Rhodopsin (Bos taurus) (P02699 whole entry): as above
Take `C[C@]12CC[C@H]3[C@@H](CCC4=CC(=O)CC[C@@]43C)[C@@H]1CC[C@@H]2CCOS(=O)(=O)c1ccc(Br)cc1`: the result was Active.

In the case of `CC1(C)[C@@H](O)CC[C@]2(C)[C@H]3C(=O)C=C4C5C[C@@](C)(C(=O)O)CC[C@]5(C)CC[C@@]4(C)[C@]3(C)CC[C@@H]12` (single isomer, unassigned), the outcome was Active.

`CC1(C)CC[C@]2(C(=O)O)CC[C@]3(C)C(=CC[C@@H]4[C@@]5(C)C[C@H](O)[C@H](O)[C@@](C)(C(=O)O)[C@@H]5CC[C@]43C)[C@@H]2C1`: the outcome was Active.

Consider `CC1(C)[C@@H](O)CC[C@]2(C)[C@H]3C(=O)C=C4[C@@H]5C[C@@](C)(C(=O)O)CC[C@]5(C)CC[C@@]4(C)[C@]3(C)CC[C@@H]12`, for which the outcome was Active.

Consider `C[C@H]1[C@H](C)CC[C@]2(C(=O)O)CC[C@]3(C)C(=CC[C@@H]4[C@@]5(C)CC[C@H](O)C(C)(C)[C@@H]5CC[C@]43C)[C@H]12`, for which the result was Active.

As for `CC1(C)CC[C@]2(C(=O)O)CC[C@]3(C)C(=CC[C@@H]4[C@@]5(C)CC[C@H](O)C(C)(C)[C@@H]5CC[C@]43C)[C@@H]2C1`, the outcome was Active.

With `C[C@]12CCC(=O)C=C1CC[C@@H]1[C@@H]2[C@@H](O)C[C@@]2(C)[C@H]1CC[C@]2(O)[C@@H](O)CO`, the outcome was Active.

By EC50 is commonly meant the midpoint of the concentration-response curve. Usually IC50 stands for the point on the concentration scale where inhibition reaches its midpoint.

The values above are taken from ChEMBL document CHEMBL1140033 (J Med Chem, 2008).
